Data from ChEMBL document CHEMBL1148139, “Antiangiogenic activity of synthetic dihydrobenzofuran lignans” (J Nat Prod, 2002).
Activity calls are given as the source filed them. No cut-off for these calls is given here.

Experiments:
Gallus gallus [1] = species on record: Gallus gallus; assay: Antiangiogenic activity in fertilized chicken eggs at 5 ug/pellet by CAM assay; format: functional; conditions: Egg
Gallus gallus [2] = species on record: Gallus gallus; assay: Antiangiogenic activity in fertilized chicken eggs at 20 ug/pellet by CAM assay; format: functional; conditions: Egg
[3] = Toxicity to fertilized chicken eggs assessed as membrane irritating activity at 20 ug/pellet; parameters: species or system Gallus gallus; conditions: in vivo, other

## COC(=O)/C=C/c1cc(O)c2c(c1)[C@@H](C(=O)OC)[C@H](c1ccc(O)c(O)c1)O2
Gallus gallus [1]
  Activity: Active
Gallus gallus [2]
  Activity: Active
[3]
  Activity: 50%
